These results are taken from patent USRE47689E1, “Compounds for treating spinal muscular atrophy” (PTC Therapeutics, Inc., priority 2011, dated 2019).

SMILES strings stand for the structures.

For the test, the system named is SMA Δ7 homozygous knockout mice. The test can be described thus: Righting reflex in neonatal Δ7 SMA mice. It counts as in vivo, mouse. The note with it: IP QD from PND 3 to day 24, then orally BID, compared to vehicle. As for the experimental part:
The functional change in righting reflex of neonatal SMA mice is used to determine whether treatment with a test compound improves righting reflex.
Protocol. SMA Δ7 homozygous knockout mice are dosed intraperitoneally (IP) with test compound or vehicle (100% DMSO) once per day (QD) from postnatal day (PND) 3 until the dose regimen is switched to an oral dose twice per day (BID) in 0.5% hydroxypropylmethyl cellulose (HPMC) with 0.1% Tween-80 at a dose 3.16-fold higher than the dose used for IP. The righting reflex time is measured as the time taken by a mouse to flip over onto its feet after being laid on its back. Righting reflex is measured five times for each mouse (allowing a maximal time of 30 sec for each try) with 5 minutes between each measurement. The righting reflex time for SMA Δ7 homozygous knockout mice treated with test compound or vehicle and age-matched heterozygous mice is measured on PND 10, 14 and 18 and plotted.

As for `CC(C)NCCc1ccc2cc(-c3nc4c(Cl)cccc4s3)c(=O)oc2c1` [Cpd 35, 3-(4-chloro-1,3-benzothiazol-2-yl)-7-[2-(propan-2-ylamino)ethyl]-2H-chromen-2-one], the righting reflex result is recorded as “improved compared to vehicle treated mice”.
